Test results published in the NIST ThermoML archive (doi:10.1021/je9003806).
Numbers after ± are expanded uncertainties.

Conditions: 101.33 kPa, Liquid

CCOC(=O)CC(=O)OCC [diethyl 1,3-propanedioate]
Conditions | mass density [kg/m3]
278.15 K | 1071.04 ± 0.12
288.14 K | 1060.33 ± 0.11
298.15 K | 1049.6 ± 0.11
313.15 K | 1033.5 ± 0.093
328.15 K | 1017.34 ± 0.081
338.15 K | 1006.5 ± 0.073
348.15 K | 995.631 ± 0.071
358.15 K | 984.697 ± 0.08
